“Also recorded” adds a separate entry of the source. Positions of bridges follow the written chain, without caps; N, C: chain ends. Chains are numbered I, II in the order given. No end group written: not given here.
B1: HD-5 (peptide, UniProt Q01523 20-94, looked up)
Defensin alpha 5: ESLQERADEATTQKQSGEDNQDLAISFAGNGLSALRTSGSQARATCYCRTGRCATRESLSGVCEISGRLYRLCCR
modifications: Defensin-5

Assays:
[1] = tested on: bacteria; experiment: preliminary antibacterial studies, reduced versus refolded rattusin; format: cell-based; details: data not shown
Source text: Similar to several α- and β-defensins (49-52), the central cysteine-rich motif of rattusin is flanked by long flexible N- and C-terminal tails, which are primarily composed of charged and uncharged polar residues (Table 2). The impact of N- and C-terminal tails and five cysteines of rattusin on its antibacterial, cytotoxic, chemotactic, and immuno-modulatory functions is investigated.

[2] = tested on: E. coli O157:H7 ATCC 700728; experiment: kinetics of bacterial killing, colony counting assay; format: cell-based; details: 4 μM peptide; for killing of E. coli: no NaCl, within 2 h
Method: FIG. 4. Kinetics of killing of E. coli O157:H7 in the absence (A) and presence (B) of 100 mM NaCl by rattusin, cryptdin-4 and HD-5. E. coli O157:H7 ATCC 700728 was incubated with 4 μM rattusin, cryptdin-4, HD-5, or an equal volume of 0.01% acetic acid (no peptide) in duplicate in 25 mM sodium phosphate buffer, pH 7.4, 1% TSB with and without 100 mM NaCl for 10, 30, 60, 120 and 240 min. Surviving bacteria were plated and counted. Data shown are means ± SEM of two independent experiments.
(§1) To study the kinetics of bacterial killing, a standard colony counting assay was used as described (26). Rattusin and cryptin-4 were incubated with 90 μl of 5×10^5 CFU/ml Staphylococcus aureus ATCC 25923 at the concentration of 2 μM each or with E. coli O157:H7 at the concentration of 4 μM each in 25 mM sodium phosphate buffer, pH 7.4, with and without 100 mM NaCl. The reaction was incubated at 37° C. for 10, 30, 60, 120 and 240 min and diluted rapidly with ice-cold PBS and plated immediately. Plates were incubated at 37° C. for 14-18 hours and viable bacteria were counted.

[3] = tested on: representative Gram-positive and Gram-negative bacteria; experiment: modified broth microdilution assay, summary over strains; format: cell-based; details: 100 mM NaCl versus no NaCl
Method: All bacterial strains were purchased from either MicroBiologics (St. Cloud, Minn.) or ATCC (Manassas, Va.). Bacteria were grown in trypticase soy broth (TSB) overnight and subcultured in the same broth for 3-4 h at 37° C. in a shaking incubator to the mid log phase. To study the antibacterial spectrum, a modified broth microdilution assay was used as described (26). Briefly, the mid log phase bacteria were washed with 25 mM sodium phosphate buffer, pH 7.4, and suspended in 5% TSB in 25 mM sodium phosphate, pH 7.4, to 5×10^5 CFU/ml with and without 100 mM NaCl. Bacteria (90 μl) were then dispensed in a 96-well plate, followed by addition of peptides (10 μl) serially diluted in 0.01% acetic acid. After overnight incubation at 37° C., the minimum inhibitory concentration (MIC) of each peptide was determined as the lowest concentration that gave no visible bacterial growth.
Refolded rattusin was then used to study its antibacterial activity against representative Gram-positive and Gram-negative bacteria by a modified broth microdilution assay with and without 100 mM NaCl.

[4] = tested on: S. aureus; experiment: effect of Mg2+ on antibacterial activity; format: cell-based, Staphylococcus aureus; details: 2 μM peptide, 0, 1, 2 and 5 mM MgCl2, 4 h
Method: (§2) FIG. 7. Effect of Mg^2+ on the antibacterial activity of rattusin and cryptdin-4 against S. aureus (A) and E. coli O157:H7 (B). S. aureus or E. coli were incubated with rattusin, cryptdin-4, or an equal volume of 0.01% acetic acid (no peptide) in 25 mM sodium phosphate buffer, containing 1% TSB with 0, 1, 2 and 5 mM MgCl2, pH 7.4, for 4 h. Surviving bacteria were plated and counted. Both peptides were used at identical concentrations for each bacterial strain (2 and 4 μM against S. aureus and E. coli, respectively). Data shown are means ± SEM of 2-3 independent experiments.
(§3) The effect of Mg^2+ on the antibacterial activity was studied by incubating rattusin and cryptdin-4 for 4 h with 90 μl of 5×10^5 CFU/ml Staphylococcus aureus at a concentration of 2 μM each or with E. coli O157:H7 at a concentration of 4 μM each in 1% TSB, 25 mM sodium phosphate buffer, containing 0, 1, 2 and 5 mM of MgCl2, pH 7.4.

[5] = tested on: S. aureus ATCC 25923; experiment: kinetics of bacterial killing, colony counting assay; format: cell-based, Staphylococcus aureus; details: 2 μM peptide
Method: FIG. 5. Kinetics of killing of S. aureus in the absence (A) and presence (B) of 100 mM NaCl by rattusin, cryptdin-4 and HD-5. S. aureus ATCC 25923 was incubated with 2 μM rattusin, cryptdin-4, HD-5, or an equal volume of 0.01% acetic acid (no peptide) in duplicate in 25 mM sodium phosphate buffer, pH 7.4, 1% TSB with and without 100 mM NaCl for 10, 30, 60, 120 and 240 min. Surviving bacteria were plated and counted. Data shown are means ± SEM of two independent experiments.
as §1

[6] = tested on: Caco-2 cells; experiment: cytotoxicity assay, alamarBlue dye; format: cell-based, human; details: 100 μM peptide, 24 h, DMEM with and without 10% FBS
Method: FIG. 8. Absence of cytotoxicity of rattusin and cryptdin-4 to Caco-2 cells. Cells were incubated with 100 μM of rattusin, cryptdin-4 or fowlicidin-1 for 24 h in DMEM with and without 10% fetal bovine serum for 24 hours. Cell viability was measured with an alamarBlue dye-based method. Data are representative of two independent experiments done in duplicate.
Cytotoxicity against human colon adenocarcinoma (CACO-2) cell line (ATCC, Manassas, Va.) was measured using alamarBlue dye (Biosource, Camarillo, Calif.) as described previously (26, 27). Briefly, CACO-2 cells were seeded into 96 well plate at 5×10^4 in Dulbecco's modified Eagle's medium (DMEM) with 10% FBS and were grown overnight. The next day cells were washed once with DMEM followed by the addition of fresh DMEM with and without 10% FBS and 100 μM of rattusin or cryptdin-4 or fowlicidin-1. […] The plate was read with excitation at 545 nm and emission at 590 nm. The percentage of cell death was calculated as [1−(Fpeptide−Fbackground)/(Facetic acid−Fbackground)]×100, where Fpeptide is the fluorescence of cells exposed to 100 μM peptide, Facetic acid is the fluorescence of cells exposed to 0.01% acetic acid only, and Fbackground is the background fluorescence of 10% alamarBlue dye in cell culture medium without cells.

[7] = tested on: E. coli O157:H7; experiment: effect of Mg2+ on antibacterial activity; format: cell-based; details: 4 μM peptide, 0, 1, 2 and 5 mM MgCl2, 4 h
Method: as §2, §3

[8] = tested on: E. coli O157:H7; experiment: effect of salinity on antibacterial activity; format: cell-based; details: 4 μM peptide, 4 h, up to 200 mM NaCl
Method: (§4) FIG. 6. Effect of salinity on the antibacterial activity of rattusin against S. aureus (A) and E. coli O157:H7 (B). S. aureus and E. coli were incubated with 2 and 4 μM of rattusin, or an equal volume of 0.01% acetic acid (no peptide) in 25 mM sodium phosphate buffer, pH 7.4, 1% TSB with increasing concentrations of NaCl, for 4 h. Surviving bacteria were plated and counted. Data shown are means ± SEM of two independent experiments.

[9] = tested on: S. aureus; experiment: effect of salinity on antibacterial activity; format: cell-based; details: 2 μM peptide, 4 h, up to 200 mM NaCl
Method: as §4

| Molecule | antibacterial activity in high salt [1] | killing of E. coli in the presence of 100 mM NaCl [2] | killing of E. coli [2] | antibacterial activity in the presence of 100 mM NaCl [3] | effect of Mg2+ on activity against S. aureus [4] | killing of S. aureus in the presence of 100 mM NaCl [5] | cytotoxicity to Caco-2 cells [6] | activity against E. coli in the presence of MgCl2 [7] | antibacterial activity with increasing concentrations of NaCl [8] | antibacterial activity with increasing concentrations of NaCl [9] |
| --- | --- | --- | --- | --- | --- | --- | --- | --- | --- | --- |
| LRVRRTLQCSCRRVCRNTCSCIRLSRSTYAS [reduced peptide, rattusin in the reduced form, without disulfide bonds] | lost significant activities |  |  |  |  |  |  |  |  |  |
| I: LRVRRTLQCSCRRVCRNTCSCIRLSRSTYAS / II: LRVRRTLQCSCRRVCRNTCSCIRLSRSTYAS (disulfide I:9-II:21, I:11-II:19, I:15-II:15, I:19-II:11, I:21-II:9) [Rattusin] |  | slightly delayed with a complete killing occurring at 4 h | three logs | remained largely unchanged | did not inhibit; also recorded: potentiated | largely unaffected | no cytotoxicity | largely unaffected | maintained antibacterial activity | maintained antibacterial activity |
| B1 |  | completely inactivated | three logs |  |  | significantly inhibited |  |  |  |  |

Source: US7521535B2, “Anti-microbial defensin-related peptides and methods of use” (priority 2006, dated 2009)
